Values quoted from earlier work in PMC9851200, “Multiparameter phenotypic screening for endogenous TFEB and TFE3 translocation identifies novel chemical series modulating lysosome function” (Autophagy, 2022).

Columns and labels:
Design in all cases: method as in original PKIS2 published data
[1] = molecular target: kinases (KINOMEscan panel) (Homo sapiens, UniProt P06241); conditions: kinase FYN; Published KINOMEscan; ref original PKIS2 published data; cited from earlier work
[2] = molecular target: kinases (KINOMEscan panel) (Homo sapiens, UniProt Q9P286); conditions: kinase PAK5; Published KINOMEscan; ref original PKIS2 published data; cited from earlier work
[3] = molecular target: T1, kinases (KINOMEscan panel) (Homo sapiens, UniProt P29320); conditions: kinase EPHA3; Published KINOMEscan; ref original PKIS2 published data; cited from earlier work
T1 sequence (P29320 21-983): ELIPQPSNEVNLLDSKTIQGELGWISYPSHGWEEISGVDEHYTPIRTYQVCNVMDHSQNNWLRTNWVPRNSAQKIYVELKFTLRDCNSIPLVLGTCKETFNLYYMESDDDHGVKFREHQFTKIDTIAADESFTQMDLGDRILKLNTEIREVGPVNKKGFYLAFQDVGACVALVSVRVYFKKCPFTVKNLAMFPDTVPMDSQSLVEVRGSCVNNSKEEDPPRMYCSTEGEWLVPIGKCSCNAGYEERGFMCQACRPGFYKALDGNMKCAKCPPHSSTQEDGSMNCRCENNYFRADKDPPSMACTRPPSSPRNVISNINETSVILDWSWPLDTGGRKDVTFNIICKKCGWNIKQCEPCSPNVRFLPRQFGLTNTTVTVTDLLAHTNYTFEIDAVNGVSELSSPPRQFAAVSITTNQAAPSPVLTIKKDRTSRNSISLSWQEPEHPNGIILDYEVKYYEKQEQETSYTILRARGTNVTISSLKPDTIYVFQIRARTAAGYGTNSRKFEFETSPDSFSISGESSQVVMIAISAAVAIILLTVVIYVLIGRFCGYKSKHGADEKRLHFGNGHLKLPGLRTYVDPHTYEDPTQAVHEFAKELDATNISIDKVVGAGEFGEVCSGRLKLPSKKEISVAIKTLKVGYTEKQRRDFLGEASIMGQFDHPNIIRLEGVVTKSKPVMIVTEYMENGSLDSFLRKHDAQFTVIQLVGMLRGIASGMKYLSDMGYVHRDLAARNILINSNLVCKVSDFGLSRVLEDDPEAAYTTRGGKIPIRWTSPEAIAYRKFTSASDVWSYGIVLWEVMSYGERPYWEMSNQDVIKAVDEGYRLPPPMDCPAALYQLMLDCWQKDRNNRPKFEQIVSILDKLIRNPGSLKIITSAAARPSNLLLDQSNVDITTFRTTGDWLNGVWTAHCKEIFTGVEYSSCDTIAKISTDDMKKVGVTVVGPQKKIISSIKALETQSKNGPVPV

[4] = molecular target: kinases (KINOMEscan panel) (Homo sapiens, UniProt Q5VT25); conditions: cited from earlier work
[5] = molecular target: T2, kinases (KINOMEscan panel) (Homo sapiens, UniProt P54762); conditions: kinase EPHB1; Published KINOMEscan; ref original PKIS2 published data; cited from earlier work
T2 sequence (P54762 18-984): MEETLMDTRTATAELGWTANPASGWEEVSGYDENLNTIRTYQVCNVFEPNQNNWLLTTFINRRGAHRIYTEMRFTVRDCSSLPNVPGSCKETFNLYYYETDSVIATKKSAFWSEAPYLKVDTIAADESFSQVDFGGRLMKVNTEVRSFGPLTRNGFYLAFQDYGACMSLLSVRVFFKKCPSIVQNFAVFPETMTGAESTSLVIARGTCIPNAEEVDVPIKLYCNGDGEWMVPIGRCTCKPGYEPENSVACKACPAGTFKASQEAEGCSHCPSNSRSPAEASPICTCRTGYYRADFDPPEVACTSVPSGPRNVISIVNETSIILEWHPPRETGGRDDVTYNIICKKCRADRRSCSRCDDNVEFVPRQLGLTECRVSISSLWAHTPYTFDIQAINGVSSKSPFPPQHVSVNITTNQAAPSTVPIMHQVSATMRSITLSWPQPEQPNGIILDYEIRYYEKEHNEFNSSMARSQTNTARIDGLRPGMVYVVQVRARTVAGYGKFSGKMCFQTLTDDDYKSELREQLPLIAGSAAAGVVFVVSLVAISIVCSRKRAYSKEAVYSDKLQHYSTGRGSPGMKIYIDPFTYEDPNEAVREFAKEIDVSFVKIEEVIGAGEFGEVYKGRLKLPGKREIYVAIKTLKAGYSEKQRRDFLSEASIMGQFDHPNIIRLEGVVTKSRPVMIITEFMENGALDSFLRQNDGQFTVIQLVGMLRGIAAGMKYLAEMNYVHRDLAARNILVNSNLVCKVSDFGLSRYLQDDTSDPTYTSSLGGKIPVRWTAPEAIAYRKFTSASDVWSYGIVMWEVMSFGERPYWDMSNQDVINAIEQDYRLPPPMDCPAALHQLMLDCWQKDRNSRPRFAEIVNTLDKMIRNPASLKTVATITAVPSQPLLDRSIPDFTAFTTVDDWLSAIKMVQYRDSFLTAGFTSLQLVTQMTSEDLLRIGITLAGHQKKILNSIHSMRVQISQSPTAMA

[6] = molecular target: kinases (KINOMEscan panel) (Homo sapiens, UniProt Q13705); conditions: kinase ACVR2B; Published KINOMEscan; ref original PKIS2 published data; cited from earlier work
[7] = molecular target: kinases (KINOMEscan panel) (Homo sapiens, UniProt Q9Y463); conditions: kinase DYRK1B; Published KINOMEscan; ref original PKIS2 published data; cited from earlier work
kinases (KINOMEscan panel) (Homo sapiens, UniProt Q9Y463), sequence (Q9Y463 whole entry): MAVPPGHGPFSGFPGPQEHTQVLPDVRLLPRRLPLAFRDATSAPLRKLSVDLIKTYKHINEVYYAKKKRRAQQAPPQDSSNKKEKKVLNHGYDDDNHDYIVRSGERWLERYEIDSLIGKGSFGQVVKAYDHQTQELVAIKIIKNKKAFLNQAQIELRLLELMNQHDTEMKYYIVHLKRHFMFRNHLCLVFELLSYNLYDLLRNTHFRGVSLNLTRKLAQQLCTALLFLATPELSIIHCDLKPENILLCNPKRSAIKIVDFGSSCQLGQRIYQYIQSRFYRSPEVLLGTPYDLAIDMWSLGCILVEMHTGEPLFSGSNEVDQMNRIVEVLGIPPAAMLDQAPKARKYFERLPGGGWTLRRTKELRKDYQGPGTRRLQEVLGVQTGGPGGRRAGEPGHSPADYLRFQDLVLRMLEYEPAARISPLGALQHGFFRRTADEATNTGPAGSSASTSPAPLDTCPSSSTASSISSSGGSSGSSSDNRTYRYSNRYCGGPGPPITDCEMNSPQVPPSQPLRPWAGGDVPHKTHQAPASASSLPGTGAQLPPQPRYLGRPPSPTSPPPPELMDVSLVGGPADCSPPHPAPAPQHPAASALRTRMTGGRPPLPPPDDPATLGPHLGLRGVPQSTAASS

kinases (KINOMEscan panel) (Homo sapiens, UniProt Q5VT25), sequence (Q5VT25 whole entry): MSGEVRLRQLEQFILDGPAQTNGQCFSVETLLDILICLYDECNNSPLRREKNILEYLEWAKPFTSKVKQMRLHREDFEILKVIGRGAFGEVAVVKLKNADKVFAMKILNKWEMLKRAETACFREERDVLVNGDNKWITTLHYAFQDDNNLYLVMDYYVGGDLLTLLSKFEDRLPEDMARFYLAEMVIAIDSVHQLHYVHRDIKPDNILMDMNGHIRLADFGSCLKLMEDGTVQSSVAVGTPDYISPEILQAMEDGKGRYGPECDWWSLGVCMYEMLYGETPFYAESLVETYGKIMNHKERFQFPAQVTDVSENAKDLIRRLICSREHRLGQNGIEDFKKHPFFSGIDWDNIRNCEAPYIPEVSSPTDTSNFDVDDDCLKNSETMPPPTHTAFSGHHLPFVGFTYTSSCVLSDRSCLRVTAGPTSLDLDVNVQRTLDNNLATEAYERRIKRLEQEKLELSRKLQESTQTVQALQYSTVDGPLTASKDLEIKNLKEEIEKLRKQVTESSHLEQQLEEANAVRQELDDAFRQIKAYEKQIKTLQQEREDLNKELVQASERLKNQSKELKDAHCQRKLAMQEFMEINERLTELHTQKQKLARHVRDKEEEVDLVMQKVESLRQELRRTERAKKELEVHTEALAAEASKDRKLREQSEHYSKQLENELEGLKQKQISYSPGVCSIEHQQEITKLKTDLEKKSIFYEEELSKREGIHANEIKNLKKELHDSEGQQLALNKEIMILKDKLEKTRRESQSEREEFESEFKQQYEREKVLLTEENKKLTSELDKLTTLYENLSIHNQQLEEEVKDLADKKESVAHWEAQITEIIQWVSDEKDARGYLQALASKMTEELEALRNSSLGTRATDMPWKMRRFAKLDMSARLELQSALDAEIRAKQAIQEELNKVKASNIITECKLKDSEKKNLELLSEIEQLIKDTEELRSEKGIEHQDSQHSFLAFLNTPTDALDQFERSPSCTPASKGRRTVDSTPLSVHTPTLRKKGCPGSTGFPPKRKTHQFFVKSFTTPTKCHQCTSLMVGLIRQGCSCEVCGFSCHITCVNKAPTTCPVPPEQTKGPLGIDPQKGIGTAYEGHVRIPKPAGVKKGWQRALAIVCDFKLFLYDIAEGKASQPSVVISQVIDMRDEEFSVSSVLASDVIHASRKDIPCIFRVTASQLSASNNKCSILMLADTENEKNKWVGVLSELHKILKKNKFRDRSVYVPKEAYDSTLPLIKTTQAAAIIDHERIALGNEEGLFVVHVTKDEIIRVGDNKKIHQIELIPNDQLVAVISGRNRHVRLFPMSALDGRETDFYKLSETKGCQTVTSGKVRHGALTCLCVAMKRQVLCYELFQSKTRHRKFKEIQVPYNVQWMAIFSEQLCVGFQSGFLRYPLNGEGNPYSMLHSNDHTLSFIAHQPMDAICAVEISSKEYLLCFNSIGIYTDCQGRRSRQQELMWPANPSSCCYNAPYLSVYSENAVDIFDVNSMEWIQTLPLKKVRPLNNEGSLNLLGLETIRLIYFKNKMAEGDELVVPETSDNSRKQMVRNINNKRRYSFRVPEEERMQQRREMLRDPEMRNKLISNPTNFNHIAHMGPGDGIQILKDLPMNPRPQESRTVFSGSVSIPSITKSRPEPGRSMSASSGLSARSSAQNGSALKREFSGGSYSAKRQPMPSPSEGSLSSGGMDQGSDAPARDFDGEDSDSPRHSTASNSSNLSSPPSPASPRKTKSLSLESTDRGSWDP
kinases (KINOMEscan panel) (Homo sapiens, UniProt P06241), sequence (P06241 whole entry): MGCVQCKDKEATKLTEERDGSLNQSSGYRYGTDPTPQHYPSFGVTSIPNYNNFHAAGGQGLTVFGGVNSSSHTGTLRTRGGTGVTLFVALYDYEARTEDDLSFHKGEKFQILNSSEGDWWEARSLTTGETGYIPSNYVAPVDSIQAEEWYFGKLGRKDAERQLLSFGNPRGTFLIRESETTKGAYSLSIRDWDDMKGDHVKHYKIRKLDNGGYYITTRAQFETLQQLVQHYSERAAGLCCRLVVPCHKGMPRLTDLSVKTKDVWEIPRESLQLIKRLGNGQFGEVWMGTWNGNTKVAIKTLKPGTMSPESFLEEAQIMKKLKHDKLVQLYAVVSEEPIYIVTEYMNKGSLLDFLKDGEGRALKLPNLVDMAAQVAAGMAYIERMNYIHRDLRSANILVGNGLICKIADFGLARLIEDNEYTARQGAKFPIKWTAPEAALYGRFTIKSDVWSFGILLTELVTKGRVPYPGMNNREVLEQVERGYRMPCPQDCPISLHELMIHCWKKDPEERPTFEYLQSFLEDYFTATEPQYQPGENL
kinases (KINOMEscan panel) (Homo sapiens, UniProt Q9P286), sequence (Q9P286 whole entry): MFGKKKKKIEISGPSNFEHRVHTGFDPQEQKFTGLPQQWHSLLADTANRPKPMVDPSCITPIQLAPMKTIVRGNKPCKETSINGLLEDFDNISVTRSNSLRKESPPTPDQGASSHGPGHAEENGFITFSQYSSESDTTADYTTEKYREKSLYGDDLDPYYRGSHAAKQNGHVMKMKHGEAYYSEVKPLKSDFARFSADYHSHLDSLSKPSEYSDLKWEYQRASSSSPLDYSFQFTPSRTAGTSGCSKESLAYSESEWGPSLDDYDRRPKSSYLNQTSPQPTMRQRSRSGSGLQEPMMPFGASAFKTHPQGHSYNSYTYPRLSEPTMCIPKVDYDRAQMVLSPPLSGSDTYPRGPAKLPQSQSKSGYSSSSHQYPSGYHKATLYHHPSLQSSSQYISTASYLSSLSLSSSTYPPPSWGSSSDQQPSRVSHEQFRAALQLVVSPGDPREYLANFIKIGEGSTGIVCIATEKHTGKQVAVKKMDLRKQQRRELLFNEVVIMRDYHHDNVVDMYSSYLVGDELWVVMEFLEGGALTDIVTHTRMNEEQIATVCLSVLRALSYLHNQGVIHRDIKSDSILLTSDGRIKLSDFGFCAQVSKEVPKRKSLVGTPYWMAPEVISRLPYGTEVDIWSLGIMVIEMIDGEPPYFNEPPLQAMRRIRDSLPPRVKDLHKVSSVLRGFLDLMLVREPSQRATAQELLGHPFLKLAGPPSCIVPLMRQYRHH
kinases (KINOMEscan panel) (Homo sapiens, UniProt Q13705), sequence (Q13705 19-512): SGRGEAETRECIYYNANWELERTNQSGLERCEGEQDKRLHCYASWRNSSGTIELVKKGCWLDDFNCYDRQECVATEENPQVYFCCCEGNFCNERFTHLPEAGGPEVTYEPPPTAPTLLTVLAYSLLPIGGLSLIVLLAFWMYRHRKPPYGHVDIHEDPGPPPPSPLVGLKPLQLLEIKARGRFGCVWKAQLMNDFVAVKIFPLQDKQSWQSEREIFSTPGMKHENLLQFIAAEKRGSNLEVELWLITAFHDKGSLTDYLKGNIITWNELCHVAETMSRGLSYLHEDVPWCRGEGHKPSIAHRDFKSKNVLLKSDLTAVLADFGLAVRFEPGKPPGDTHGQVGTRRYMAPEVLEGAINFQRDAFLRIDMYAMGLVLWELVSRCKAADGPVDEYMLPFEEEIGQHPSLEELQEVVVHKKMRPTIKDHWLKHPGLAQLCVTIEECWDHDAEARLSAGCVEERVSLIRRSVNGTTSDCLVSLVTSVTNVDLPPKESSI

In the case of `Cc1cccc(-c2nc(Nc3ccncc3)c3ccccc3n2)n1` [NK215], the “KINOMEscan FYN” value [1] is listed as 13, the “KINOMEscan PAK5” value [2] is listed as 0 and the “KINOMEscan EPHA3” value [3] is listed as 0. For the same molecule, the “KINOMEscan CDC42BPA/MRCKA” value [4] was 47, the “KINOMEscan EPHB1” value [5] was 3 and the “KINOMEscan ACVR2B” value [6] was 36. For the same molecule, the “KINOMEscan DYRK1B” value [7] was 27.
